According to patent publication US4522839A, “3-Substituted 2,4,6-trihalogenated benzamides as sweetening agents” (Schering Aktiengesellschaft, priority 1980, dated 1985):
Read-outs that look alike come from different tables or passages of the source. Residues, ends and D or L forms follow the SMILES beside them.

What was measured:
in vivo = details: mouse, ip
[1] = Identification threshold values (cts) of sweeteners (triangle test) and comparison with sucrose; set-up: species or system persons; details: for Identification Threshold Values (cts): tap water, pH 6-7 if necessary with NaOH, 5 persons, triangle test, 1 ml samples; for f suc, mol (cts): compound, sweetening power relative to sucrose, molar
Experimental: These sensory investigations were conducted by 5 persons; all samples were encoded by a person not participating in the test. […] Consecutive samples of 1 ml were consumed. The approximate concentration values determined in a preliminary test were inserted, in the main experiment, in the middle of a dilution series. All solutions of a compound were encoded with two water samples (triangle test). The testers must indicate which of the three samples of decreasing concentration are considered to be sweet. The identification threshold value is set forth to be the lowest concentration range (cts) at which the testers still render a correct judgment.

[2] = General taste evaluation of aqueous solutions in concentration stages 1-8 (blind taste test); set-up: species or system healthy volunteers; details: average results of 3 taste tests
Experimental: The following concentrations correspond to the 8 concentration stages tested:
(§1) The taste tests were conducted by three healthy volunteers; the solutions were coded by letter-number combinations and randomized so that the tester could not know which compound he or she tasted. Also the reference solution (5% sucrose) remained part of the randomizing plan initially, for the purpose of general taste characteristics of the compounds.

mice = details: for Number of Dead Animals/Number of Animals Utilized: mice, intraperitoneal
[3] = Degree of sweetening compared with 5% sucrose solution (taste test); set-up: species or system healthy volunteers; details: times the sweetening power of sucrose (sucrose = 1), average of 3 taste tests
Experimental: as §1

[4] = literature (Hager's Manual), b158: also determined by all three testers in a blind taste test, cited from earlier work

Compound | Identification Threshold Values (cts) [1] [µmol/L] | Degree of Sweetening [3] | f suc, mol (cts) [1] | also measured
NC(=O)c1c(Br)cc(Br)c(CCC(=O)O)c1Br [A, 3-(3-carbamoyl-2,4,6-tribromophenyl)propionic acid] | 0.6 to 1.4 | 6000-7000 | – | LD50 (in vivo): ~6000 mg/kg; General Taste Evaluation, concentration stage 7 ([2]; 0.781 mg/100 ml (1/6400 of 5% sucrose)): Sweet; General Taste Evaluation, concentration stage 6 ([2]; 1.563 mg/100 ml (1/3200 of 5% sucrose)): Sweet; General compatibility (mice; intraperitoneal injection in mice): approximately the same good compatibility as sodium saccharin; Number of Dead Animals/Number of Animals Utilized (mice; 3.0 g/kg BW): 2/10; Number of Dead Animals/Number of Animals Utilized (mice; 6.0 g/kg BW): 6/10; Number of Dead Animals/Number of Animals Utilized (mice; 9.0 g/kg BW): 10/10
COC(=O)[C@H](Cc1ccccc1)NC(=O)[C@@H](N)CC(=O)O [Aspartame] (H-Asp-Phe-OMe) | 20 to 60 | – | 275 | –
O=S(=O)(O)NC1CCCCC1 [Cyclamate] | 1000 to 3000 | < 100 | 5.5 | Degree of sweetening known from the literature [4]: 30-70; Degree of sweetening known from the literature ([4]; listed as Sodium cyclamate): 70
CCOc1ccc(NC(N)=O)cc1 [Dulcin] | 15 to 30 | – | 489 | –
NC(=O)c1c(I)cc(I)c(CCC(=O)O)c1I [E, 3-(3-carbamoyl-2,4,6-triiodophenyl)propionic acid] | 1.0 to 2.0 | – | – | –
NC(=O)c1c(I)cc(I)c(OCC(=O)O)c1I [F, 3-carbamoyl-2,4,6-triiodophenoxyacetic acid] | 15 to 25 | – | – | –
NC(=O)c1c(Cl)cc(Cl)c(CCC(=O)O)c1Cl [G, 3-(3-carbamoyl-2,4,6-trichlorophenyl)propionic acid] | 2.5 to 4.0 | – | – | –
O=C1NS(=O)(=O)c2ccccc21.[Na] [Sodium Saccharin] | 15 to 30 | 400 | 489 | General Taste Evaluation, concentration stage 2 ([2]; 25.0 mg/100 ml (1/200 of 5% sucrose)): Sweet; General Taste Evaluation, concentration stage 1 ([2]; 50.0 mg/100 ml (1/100 of 5% sucrose)): Sweet; Degree of sweetening known from the literature [4]: 400; Number of Dead Animals/Number of Animals Utilized (mice; 3.0 g/kg BW): 0/10; Number of Dead Animals/Number of Animals Utilized (mice; 6.0 g/kg BW): 5/10
OC[C@H]1O[C@@](CO)(O[C@H]2O[C@H](CO)[C@@H](O)[C@H](O)[C@H]2O)[C@@H](O)[C@@H]1O [Sucrose] | 10000 to 12000 | 1 | 1 | –
